# Experimental data from article PMC8099913, “FoldAffinity: binding affinities from nDSF experiments” (Scientific Reports, 2021).
# Values joined by “and” are separate entries in the source; they are usually repeats but may differ in a detail not shown here. Identical values can stand only once. Like-named read-outs stand apart in the source and are kept apart here.
# Experiments:
# Pcs60 [1] = target: T1, Pcs60 (Saccharomyces cerevisiae, UniProt P38137); assay: Differential scanning calorimetry (DSC) of Pcs60 with γS-ATP; type: binding, S. cerevisiae; details: Pcs60 180 µM, γS-ATP 192 µM
# Protocol: 2Differential scanning calorimetry of Pcs60
# Figure S24. Differential scanning calorimetry (DSC) of Pcs60 (180 µM) in absence and presence of its ligand γS-ATP (192 µM). Here the raw data is shown before baseline correction. […] The […]
# temperature of the ﬁrst transition is shifted by ligand binding from 41.5 to 43.4◦C. […]
# affected upon ligand binding. Since the two transitions overlap, it was not possible to extract a reliable value of the heat capacity change upon unfolding ∆Cp.
# (also on this page, place not known: 2 30 40 50 60 70 Temperature / C 11 10 9 8 7 6 DP / mJ/min PCS60 PCS60 + S-ATP Differential)
# (1 picture or pasted object on this page, not shown here)
# Pcs60 K523A mutant = Pcs60 K523A mutant (Saccharomyces cerevisiae, UniProt P38137, K523A); assay: biochemical; type: binding, S. cerevisiae
# Protocol: (§1) The following protocol was used for all nDSF experiments with Pcs60 and the nucleotide ligand γS-ATP. 14 dilutions of the nucleotide ligand (γS-ATP) starting at 5 mM at a constant Pcs60 concentration of 9.9 μM were prepared in buffer (50 mM HEPES pH 7.5, 150 mM NaCl, 0.5 mM TCEP). […] In addition to the ligand dilutions, a pure Pcs60 sample in the same buffer was used. If not stated otherwise, the measurements were run as triplicates (in total 45 temperature curves). The LED laser power for the experiments was between 70 and 80%.
# wild-type Pcs60 = wild-type Pcs60 (Saccharomyces cerevisiae, UniProt P38137); assay: biochemical; type: binding, S. cerevisiae
# Protocol: as §1
# Figure S29. (A) nDSF binding study for wild-type Pcs60 WT/γS-ATP. The region in the colored box was used for isothermal
# analysis. […] (C) Isothermal analysis for […]
# Pcs60 [2] = target: T1, Pcs60; type: binding, S. cerevisiae; details: read-out: Kd (MST); Tref 21 °C; 1:1 model
# Protocol: MST curves for Pcs60/ γ S-ATP were acquired with a Nanotemper Monolith NT.LabelFree (Nanotemper) using the MO.Control v1.6 acquisition software and Monolith NT.LabelFree capillaries. The same protein concentration and buffer conditions as for the nDSF experiments were used (9.9 μM). 16 different ligand concentrations (serial dilution with a factor of 2) in the range between 5 mM and 0.15 μM were used for each measurement. For the MST experiment the IR laser power was set to 20% and the UV laser power to 1%. In total, two independent measurements were done plus an additional repeat. The data was exported as xlsx and analyzed and plotted with a self-written Python script. The regions for Fnorm determination were − 1–0 s for “cold” and 19–20 s for “hot”. For each curve Fnorm was calculated as the ratio between the mean values in the “hot” and “cold” region. In the final step, Fnorm was fitted to a 1:1 binding model. The self-written Python scripts for spectral analysis including MST analysis are available online: https://github.com/steniegit/libspec
# Pcs60 [3] = target: T1, Pcs60; type: binding, S. cerevisiae
# SS1 = SS1 (Danio rerio, UniProt A0A0R4IMY7); type: binding, zebrafish
# EG1 = EG1 (Homo sapiens, UniProt Q9BW91); type: binding; details: ADPR 2 mM to 24 nM
# Sequence of EG1 (Q9BW91 59-350): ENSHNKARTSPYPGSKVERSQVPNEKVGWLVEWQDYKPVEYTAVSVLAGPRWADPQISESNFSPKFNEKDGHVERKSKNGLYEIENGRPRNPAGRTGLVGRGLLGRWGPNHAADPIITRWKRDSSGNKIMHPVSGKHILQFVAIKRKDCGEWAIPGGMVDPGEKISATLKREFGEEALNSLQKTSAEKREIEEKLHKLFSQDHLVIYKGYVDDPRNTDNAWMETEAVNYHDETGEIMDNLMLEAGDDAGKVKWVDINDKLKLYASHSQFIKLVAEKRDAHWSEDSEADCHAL
# Sequence of Pcs60 K523A mutant (P38137 whole entry K523A): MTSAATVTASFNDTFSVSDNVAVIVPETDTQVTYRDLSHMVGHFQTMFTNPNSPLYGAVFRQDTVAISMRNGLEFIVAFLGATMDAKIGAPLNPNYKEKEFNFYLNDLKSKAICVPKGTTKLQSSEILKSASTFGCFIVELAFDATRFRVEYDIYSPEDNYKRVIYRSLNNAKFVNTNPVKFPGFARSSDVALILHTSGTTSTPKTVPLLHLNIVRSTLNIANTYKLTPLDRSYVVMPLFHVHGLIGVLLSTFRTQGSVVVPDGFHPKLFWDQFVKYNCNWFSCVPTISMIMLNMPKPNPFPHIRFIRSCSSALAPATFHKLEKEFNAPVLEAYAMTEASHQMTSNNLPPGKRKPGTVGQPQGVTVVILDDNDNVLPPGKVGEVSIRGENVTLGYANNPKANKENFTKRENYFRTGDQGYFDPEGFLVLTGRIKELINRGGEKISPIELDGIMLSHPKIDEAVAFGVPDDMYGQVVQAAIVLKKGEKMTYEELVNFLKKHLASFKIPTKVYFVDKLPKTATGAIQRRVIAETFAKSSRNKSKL
# Sequence of wild-type Pcs60 (P38137 whole entry): as the sequence (P38137 whole entry K523A) above, with A523K counted along it
# T1 sequence (P38137 whole entry): as the sequence (P38137 whole entry K523A) above, with A523K counted along it
# Sequence of SS1 (A0A0R4IMY7 32-415): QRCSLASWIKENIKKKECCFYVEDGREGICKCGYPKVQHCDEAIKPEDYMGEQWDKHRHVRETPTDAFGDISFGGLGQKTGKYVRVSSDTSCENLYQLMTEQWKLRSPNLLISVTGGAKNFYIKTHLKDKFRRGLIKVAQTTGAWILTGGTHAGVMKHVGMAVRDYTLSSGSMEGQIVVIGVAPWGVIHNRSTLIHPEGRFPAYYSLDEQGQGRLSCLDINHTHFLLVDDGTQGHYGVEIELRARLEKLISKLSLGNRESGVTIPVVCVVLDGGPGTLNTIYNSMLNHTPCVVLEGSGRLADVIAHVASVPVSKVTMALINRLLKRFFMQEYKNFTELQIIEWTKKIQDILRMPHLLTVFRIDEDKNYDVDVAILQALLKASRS
compound,measurement,setting,value
Nc1ncnc2c1ncn2[C@@H]1O[C@H](CO[P@](=O)(O)O[P@](=O)(O)O[P@@](=O)(O)S)[C@@H](O)[C@H]1O [γS-ATP],second transition at […] (DSC) upon ligand binding,Pcs60 [1],not
same,temperature of the first transition (DSC) upon ligand binding,Pcs60 [1]; 41.5 °C in absence of ligand,43.4 °C
same,Kd,Pcs60 K523A mutant; Kd (isothermal analysis),252 µM and 297 µM and 246 µM and 236 µM and 227 µM and 219 µM and 212 µM and 221 µM
same,Kd,Pcs60 K523A mutant; read-out: Kd (isothermal analysis of nDSF),213 µM
same,Kd,"Pcs60 K523A mutant; read-out: Kd, melting temperature analysis model 1",741 µM
same,Kd,"Pcs60 K523A mutant; read-out: Kd, melting temperature analysis model 2",117 µM
same,Kd,"wild-type Pcs60; T=36 °C, ∆Cp = 0, read-out: Kd (isothermal analysis)",19.7 µM
same,Kd,"wild-type Pcs60; T=38 °C, ∆Cp = 0, read-out: Kd (isothermal analysis)",20.2 µM
same,Kd,"wild-type Pcs60; T=40 °C, ∆Cp = 0, read-out: Kd (isothermal analysis)",21 µM
same,Kd,"wild-type Pcs60; T=42 °C, ∆Cp = 0, read-out: Kd (isothermal analysis)",22.5 µM
same,Kd,"wild-type Pcs60; T=44 °C, ∆Cp = 0, read-out: Kd (isothermal analysis)",24.9 µM
same,Kd,"wild-type Pcs60; T=46 °C, ∆Cp = 0, read-out: Kd (isothermal analysis)",28.7 µM
same,Kd,"wild-type Pcs60; T=48 °C, ∆Cp = 0, read-out: Kd (isothermal analysis)",39.5 µM
same,Kd,"wild-type Pcs60; T=50 °C, ∆Cp = 0, read-out: Kd (isothermal analysis)",78 µM
same,Kd,"wild-type Pcs60; T=52 °C, ∆Cp = 0, read-out: Kd (isothermal analysis)",146 µM
same,Kd,"wild-type Pcs60; isothermal analysis, read-out: Kd values (summary in legend)",~20 µM
same,Kd,"wild-type Pcs60; read-out: Kd,app Model 1 (melting temperature analysis)",195 µM
same,Kd,"wild-type Pcs60; read-out: Kd,app Model 2 (melting temperature analysis)",15.6 µM
same,Kd,Pcs60 [2],16 µM
same,Kd,"Pcs60 [3]; T=36 °C, fitted ∆Cp = 6.7 kcal/molK, read-out: Kd (isothermal analysis, fitted ∆Cp)",14.9 µM
same,Kd,"Pcs60 [3]; T=38 °C, fitted ∆Cp = 6.7 kcal/molK, read-out: Kd (isothermal analysis, fitted ∆Cp)",15.4 µM
same,Kd,"Pcs60 [3]; T=40 °C, fitted ∆Cp = 6.7 kcal/molK, read-out: Kd (isothermal analysis, fitted ∆Cp)",17.1 µM
same,Kd,"Pcs60 [3]; T=42 °C, fitted ∆Cp = 6.7 kcal/molK, read-out: Kd (isothermal analysis, fitted ∆Cp)",21.9 µM
same,Kd,"Pcs60 [3]; T=44 °C, fitted ∆Cp = 6.7 kcal/molK, read-out: Kd (isothermal analysis, fitted ∆Cp)",32.4 µM
same,Kd,"Pcs60 [3]; T=46 °C, fitted ∆Cp = 6.7 kcal/molK, read-out: Kd (isothermal analysis, fitted ∆Cp)",41.1 µM
same,Kd,"Pcs60 [3]; T=48 °C, fitted ∆Cp = 6.7 kcal/molK, read-out: Kd (isothermal analysis, fitted ∆Cp)",27.8 µM
same,Kd,"Pcs60 [3]; Tiso 40 °C, ∆Cp = 0, read-out: Kd (isothermal analysis of nDSF)",18.4 µM
same,Tm (melting temperature range of binding study),Pcs60 [3]; first transition,37–48 °C
same,Kd,"Pcs60 [3]; heating rate 1 °C/min, ∆Cp default 0 kcal/mol, Tsel 40 °C, read-out: Kd,Tsel",18 µM
same,Kd,"Pcs60 [3]; heating rate 1 °C/min, ∆Cp fitted 6.7 kcal/mol, Tsel 38 °C, read-out: Kd,Tsel",17 µM
same,Kd,"Pcs60 [3]; heating rate 3 °C/min, ∆Cp default 0 kcal/mol, Tsel 39 °C, read-out: Kd,Tsel",16 µM
same,Kd,"Pcs60 [3]; heating rate 3 °C/min, ∆Cp fitted 6.7 kcal/mol, Tsel 39 °C, read-out: Kd,Tsel",19 µM
same,Kd,"Pcs60 [3]; heating rate 5 °C/min, ∆Cp default 0 kcal/mol, Tsel 39 °C, read-out: Kd,Tsel",23 µM
same,Kd,"Pcs60 [3]; heating rate 5 °C/min, ∆Cp fitted 6.7 kcal/mol, Tsel 40 °C, read-out: Kd,Tsel",24 µM
same,Kd,"Pcs60 [3]; read-out: Kd,app,model1 (melting temperature analysis), single-site model, Eq. (1), first transition",144 µM
same,Kd,"Pcs60 [3]; read-out: Kd,app,model2 (melting temperature analysis), model 2, Eq. (4), first transition",10.2 µM
adenosine diphosphate ribose [ADPR],Tm (melting temperature range of binding study),SS1,50–60 °C
same,Tm (melting temperature range of binding study),EG1,51–56 °C
